Key:
Type in all cases: cell-based
[1] = test system: E. coli DH5α; experiment: Antibacterial activity: MIC and growth curve against E. coli DH5α in 96-well plate; settings: minimal inhibitory concentration against E. coli DH5α; 96-well plate, 5×10^5 CFU/mL, 37° C., judged after 8 h
Outline: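 Log-phase bacteria (OD600 ~0.5) resuspended in LB at 5×10^5 CFU/mL, exposed to recombinant protein at 50, 25, 12.5 μg/mL final in triplicate, 37 °C shaking at 175 rpm. OD600 read every 30 min; MIC is lowest concentration showing no growth.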

[2] = test system: E. coli BL21; experiment: MIC against Gram-negative bacteria: E. coli BL21; settings: E. coli BL21, 5×10^5 CFU/mL
Outline: (§1)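 Purified recombinant human EGF domain proteins are tested by broth dilution in LB against a 5×10^5 CFU/mL inoculum, with two-fold serial dilutions run in triplicate. Plates are incubated at 37° C with shaking, and the MIC is read as the lowest protein concentration without growth.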

[3] = test system: Pseudomonas aeruginosa; experiment: MIC against Gram-negative bacteria: Pseudomonas aeruginosa; settings: 5×10^5 CFU/mL; for MIC against P. aeruginosa: Pseudomonas aeruginosa
Outline: as §1

[4] = test system: Klebsiella pneumonia; experiment: MIC against Gram-negative bacteria: Klebsiella pneumonia; settings: 5×10^5 CFU/mL; for MIC against K. pneumonia: Klebsiella pneumonia
Outline: as §1

[5] = test system: Enterobacter cloacae; experiment: MIC against Gram-negative bacteria: Enterobacter cloacae; settings: 5×10^5 CFU/mL; for MIC against E. cloacae: Enterobacter cloacae
Outline: as §1

[6] = test system: Aeromonas hydrophila; experiment: MIC against Gram-negative bacteria: Aeromonas hydrophila; settings: 5×10^5 CFU/mL; for MIC against A. hydrophila: Aeromonas hydrophila
Outline: as §1

[7] = test system: Citrobacter diversus; experiment: MIC against Gram-negative bacteria: Citrobacter diversus; settings: 5×10^5 CFU/mL; for MIC against C. diversus: Citrobacter diversus
Outline: as §1

[8] = test system: Moraxella catarrhalis; experiment: MIC against Gram-negative bacteria: Moraxella catarrhalis; settings: 5×10^5 CFU/mL; for MIC against M. catarrhalis: Moraxella catarrhalis
Outline: as §1

[9] = test system: Proteus mirabilis; experiment: MIC against Gram-negative bacteria: Proteus mirabilis; settings: 5×10^5 CFU/mL; for MIC against P. mirabilis: Proteus mirabilis
Outline: as §1

[10] = test system: Proteus vulgaris; experiment: MIC against Gram-negative bacteria: Proteus vulgaris; settings: 5×10^5 CFU/mL; for MIC against P. vulgaris: Proteus vulgaris
Outline: as §1

[11] = test system: Serratia marcescens; experiment: MIC against Gram-negative bacteria: Serratia marcescens; settings: 5×10^5 CFU/mL; for MIC against S. marcescens: Serratia marcescens
Outline: as §1

| Substance | MIC [1] | MIC against E. coli BL21 ([2]; 96-well plate, 37° C., 10 h) | MIC against P. aeruginosa ([3]; 96-well plate, 37° C., 10 h) | MIC against K. pneumonia ([4]; 96-well plate, 37° C., 10 h) | MIC against E. cloacae ([5]; 96-well plate, 37° C., 10 h) | MIC against A. hydrophila ([6]; 96-well plate, 37° C., 10 h) | MIC against C. diversus ([7]; 96-well plate, 37° C., 10 h) | MIC against M. catarrhalis ([8]; 96-well plate, 37° C., 10 h) | MIC against P. mirabilis ([9]; 96-well plate, 37° C., 10 h) | MIC against P. vulgaris ([10]; 96-well plate, 37° C., 10 h) | MIC against E. coli BL21 ([2]; 10 h cultivation at 37° C.) | MIC against P. aeruginosa ([3]; 10 h cultivation at 37° C.) | MIC against K. pneumonia ([4]; 10 h cultivation at 37° C.) | MIC against E. cloacae ([5]; 10 h cultivation at 37° C.) | MIC against A. hydrophila ([6]; 10 h cultivation at 37° C.) | MIC against C. diversus ([7]; 10 h cultivation at 37° C.) | MIC against M. catarrhalis ([8]; 10 h cultivation at 37° C.) | MIC against P. mirabilis ([9]; 10 h cultivation at 37° C.) | MIC against P. vulgaris ([10]; 10 h cultivation at 37° C.) | MIC against S. marcescens ([11]; 10 h cultivation at 37° C.) | other results |
| --- | --- | --- | --- | --- | --- | --- | --- | --- | --- | --- | --- | --- | --- | --- | --- | --- | --- | --- | --- | --- | --- |
| PRT1319 (SMGDCGPTGLAQHCHLHARCVSQEGVARCRCLDGFEGDGFS; listed as Homo sapiens) | 12.5 µg/mL | 50 µg/mL | 12.5 µg/mL | 25 µg/mL | 25 µg/mL | 25 µg/mL | 12.5 µg/mL | 25 µg/mL | 25 µg/mL | 12.5 µg/mL | – | – | – | – | – | – | – | – | – | – | MIC against S. marcescens ([11]; 96-well plate, 37° C., 10 h): 12.5 µg/mL |
| PRT1371 (GTRACPGDCRGRGRCVDGRCVCNPGFTGEDC; listed as Homo sapiens) | 50 µg/mL | – | – | – | – | – | – | – | – | – | 12.5 µg/mL | 12.5 µg/mL | 12.5 µg/mL | 12.5 µg/mL | 12.5 µg/mL | 100 µg/mL | 12.5 µg/mL | 12.5 µg/mL | 12.5 µg/mL | 12.5 µg/mL | – |
| PRT761 (RKDVCQAIDHGCEHICVNSDDSYTCECLEGFRLAEDGKRCR; listed as Homo sapiens) | 50 µg/mL | – | – | – | – | – | – | – | – | – | – | – | – | – | – | – | – | – | – | – | MIC (μg/mL) E. coli BL21 ([2]; 10 h cultivation at 37° C.): 12.5 µg/mL; MIC (μg/mL) P. aeruginosa ([3]; P. aeruginosa, 10 h cultivation at 37° C.): 50 µg/mL; MIC (μg/mL) K. pneumonia ([4]; K. pneumonia, 10 h cultivation at 37° C.): 12.5 µg/mL; MIC (μg/mL) E. cloacae ([5]; E. cloacae, 10 h cultivation at 37° C.): 50 µg/mL; MIC (μg/mL) A. hydrophila ([6]; A. hydrophila, 10 h cultivation at 37° C.): 25 µg/mL; MIC (μg/mL) C. diversus ([7]; C. diversus, 10 h cultivation at 37° C.): 12.5 µg/mL; MIC (μg/mL) M. catarrhalis ([8]; M. catarrhalis, 10 h cultivation at 37° C.): 25 µg/mL; MIC (μg/mL) P. mirabilis ([9]; P. mirabilis, 10 h cultivation at 37° C.): 50 µg/mL; MIC (μg/mL) P. vulgaris ([10]; P. vulgaris, 10 h cultivation at 37° C.): 12.5 µg/mL; MIC (μg/mL) S. marcescens ([11]; S. marcescens, 10 h cultivation at 37° C.): 25 µg/mL |
| PRT1413 (PTNQCIDVACSNHGTCITGTCICNPGYKGESCE; listed as Homo sapiens) | 12.5 µg/mL | – | – | – | – | – | – | – | – | – | 25 µg/mL | 50 µg/mL | 25 µg/mL | 12.5 µg/mL | 25 µg/mL | 50 µg/mL | 12.5 µg/mL | 50 µg/mL | 25 µg/mL | 12.5 µg/mL | – |
| PRT1325 (TEDNCNGTCHTSANCLTNSDGTASCKCAAGFQGNGTICT; listed as Homo sapiens) | 12.5 µg/mL | 12.5 µg/mL | 25 µg/mL | 12.5 µg/mL | 25 µg/mL | 25 µg/mL | 12.5 µg/mL | 12.5 µg/mL | 25 µg/mL | 12.5 µg/mL | – | – | – | – | – | – | – | – | – | – | MIC against S. marcescens ([11]; 96-well plate, 37° C., 10 h): 25 µg/mL |
| PRT1403 (SVVECPRNCHGNGECVSGTCHCFPGFLGPDCS; listed as Homo sapiens) | 50 µg/mL | – | – | – | – | – | – | – | – | – | 12.5 µg/mL | 50 µg/mL | 12.5 µg/mL | 25 µg/mL | 25 µg/mL | 50 µg/mL | 12.5 µg/mL | 50 µg/mL | 12.5 µg/mL | 50 µg/mL | – |
